Like-named read-outs stand apart in the source and are kept apart here.
Experiments:
[1] = molecular target: human 5-HT2A (h5-HT2A) receptor (Homo sapiens (Human), UniProt P28223); assay: FLIPR calcium assay, human 5-HT2A receptor, agonist mode; type: cell-based
Protocol: I. Assessment of the Activated Effect of Exemplary Compounds of Formula I Targeting on Human 5-HT2A (h5-HT2A) Receptor Under Agonist Mode:
1. Culture the cells in cell culture medium (DMEM containing 10% FBS, 1× penicillin-streptomycin 300 μg/ml G418 and 100 μg/ml hygromycin B) at 37° C., 5% (v/v) CO2.
2. One day before the assays, detach the cell using TrypLE™ Express and count cells using cell counter.
3. Seed 20000 cells/well in 30 μl/well culture medium to a 384-well cell plate and incubate the cells overnight at 37° C., 5% (v/v) CO2.
4. On the assay day, prepare 2×dye solution following the manual of the FLIPR® Calcium 6 Assay Kit: i. Dilute the dye with assay buffer(20 mM HEPES in 1× HBSS, PH7.4); ii. Add probenecid to the final concentration of 5 mM; iii. Vortex vigorously for 1-2 minutes.
5. Medium from cell plate by flicking the cell plate on towel papers.
6. Add 10 μl of assay buffer and 10 μl of 2×dye solution to each well of the cell plate.
7. Put the cell plate on plate shaker, agitate the plate at 600 rpm for 2 minutes. Incubate the plate at 37° C. for 2 hours followed by additional 15-minute incubation at 25° C.
8. Prepare 3×compound in assay buffer: a. Dilute reference compounds to required concentration with DMSO. Add the compounds to a 384-well compound plate; b. Perform serial dilutions; c. Add 10 mM test compounds to the compound plate, perform 3-fold serial dilutions. d. […] Add 20 μl/well assay buffer to the compound plate; f. Mix the plate on plate shaker for 2 mins;
i. The normalized fluorescence reading (RFU) is calculated as shown follow, while Fmax and Fmin stand for maximum and minimum of calcium signal during defined time window: RFU=Fmax−Fmin
ii. Calculate the percentage activation by using following equation: […]
iii. Calculate EC50 by fitting % activation against log of compound concentrations with Hill equation using XLfit.

[2] = Human liver microsomes stability with NADPH; details: for Remaining Percentage (%) after 60 min, Human: human liver microsomes, with NADPH, 2 μM; for half-life at 2 μM / microsomal CLint at 2 μM: human, microsomes
Protocol: (§1) The objective of this study was to estimate in vitro metabolic stability of exemplary compounds in pooled human, male rat and male mouse liver microsomes. The concentrations of exemplary compounds in reaction systems were evaluated by LC-MS/MS for estimating the stability in pooled human, male rat and male mouse liver microsomes. The in vitro intrinsic clearances of test compounds were determined as well.
(§2) A master solution in the “Incubation Plate” containing phosphate buffer, ultra-pure H2O, MgCl2 solution and liver microsomes was made according to Table 3. The mixture was pre-warmed at 37° C. water bath for 5 minutes.
(§3) 40 μL of 10 mM NADPH solution was added to each well. The final concentration of NADPH was 1 mM. The negative control samples were prepared by replacing NADPH with 40 μL of ultra-pure H2O. Samples were prepared in duplicate. Negative controls were prepared in singlet.
(§4) The reaction was started with the addition of 4 μL of 200 μM exemplary test compounds or control compounds to each master solution to get the final concentration of 2 μM. This study was performed in duplicate.
(§5) Aliquots of 50 μL were taken from the reaction solution at 0, 15, 30, 45 and 60 minutes. The reaction solutions were stopped by the addition of 4 volumes of cold methanol with IS (100 nM alprazolam, 200 nM imipramine, 200 nM labetalol and 2 μM ketoprofen). Samples were centrifuged at 3,220 g for 40 minutes. Aliquot of 90 μL of the supernatant was mixed with 90 μL of ultra-pure H2O and then was used for LC-MS/MS analysis.
(§6) LC/MS analysis was performed for all samples from this study using a Shimadzu liquid chromatograph separation system equipped with degasser DGU-20A5R; solvent delivery unit LC-30AD; system controller SIL-30AC; column oven CTO-30A; CTC Analytics HTC PAL System. Mass spectrometric analysis was performed using an Triple Quad™ 5500 instrument.
(§7) All calculations were carried out using Microsoft Excel. Peak areas were determined from extracted ion chromatograms. The slope value, k, was determined by linear regression of the natural logarithm of the remaining percentage of the parent drug vs. incubation time curve.
(§8) Conversion of the in vitro t1/2 (min) into the in vitro intrinsic clearance (in vitro CLint, in μL/min/mg proteins) was done using the following equation (mean of duplicate determinations): […]

[3] = Rat liver microsomes stability with NADPH; details: for half-life at 2 μM / microsomal CLint at 2 μM: male, rat, microsomes; for Remaining Percentage (%) after 60 min, Rat: rat liver microsomes, with NADPH, 2 μM
Protocol: as §1, §2, §3, §4, §5, §6, §7, §8

[4] = In vivo pharmacokinetics in male C57BL/6 mice (IV and PO); details: mouse; for AUC(0-inf) / C0 / clearance / AUC(0-t) / half-life / MRT inf / Vd / Cmax / Tmax / bioavailability: male, C57BL/6, plasma; for AUC(0-t): read-out: AUC0-tlast; for half-life: read-out: Apparent t1/2 (converted); for MRT inf: read-out: MRT0-inf; for Vd: read-out: Vss; for bioavailability: read-out: F (bioavailability)
Protocol: Example 26: In Vivo Assessment of the Pharmacokinetics in Mice and Rats […]
Male C57BL/6 mice (25-30 g) from Charles River Labs were acclimatized for a minimum of 5 days prior to dosing. Body weights will be recorded on the day of dosing.
Animals dosed p.o. were deprived of food overnight and fed ˜2 h following dosing.
Formulations were administered intravenously (i.v.) via the tail vein or orally (p.o.) by gavage with disposable feeding needles.
Serial blood samples were collected via tail snip. Terminal blood samples will be collected under isoflurane anesthesia by cardiac puncture.
All blood samples were transferred into K2EDTA tubes on wet ice and centrifuged within 5 min (3200×g for 5 min at 4° C.) to obtain plasma. Plasma will be stored at −80° C. until analysis.
AB Sciex QTRAP 4000 or 6500 MS/MS system equipped with an LC system with a binary pump, a solvent degasser, a thermostatted column compartment and a multiplate autosampler. i. Analysis software: Phoenix® WinNonlin® 8.2 (Pharsight, Certara, Mountainview, Calif.) ii. Analysis methods: non-compartmental analysis, linear up/log down trapezoidal rule iii. PK parameters: C0, t1/2, AUC0-tlast. AUC0-∞, CL, Vss, MRT, tmax(po), Cmax(po), F, as appropriate • C0 concentration extrapolated to time zero following an i.v. dose • tmax time at which maximum concentration is observed • Cmax maximum observed concentration • Apparent t1/2 apparent terminal half-life • AUC0-tlast area under the concentration vs time curve from time 0 to the time of the last measurable concentration • AUC0-inf area under the concentration vs time curve from time 0 to infinity • CL systemic clearance • MRT0-inf mean residence time from time zero to infinity • Vss steady-state volume of distribution • F bioavailability=(Dose^iv*AUC^po)/(Dose^po*AUC^iv)*100

Structure (SMILES)	EC50 [1] [nM]	Remaining Percentage (%) after 60 min, Human [2] [%]	half-life at 2 μM [2] [h]	microsomal CLint at 2 μM [2] [µL/min/mg]	half-life at 2 μM [3] [h]	microsomal CLint at 2 μM [3] [µL/min/mg]	Remaining Percentage (%) after 60 min, Rat [3] [%]	AUC(0-inf) ([4]; IV, 1 mg/kg) [ng·h/mL]	C0 ([4]; IV, 1 mg/kg) [ng/mL]	clearance ([4]; IV, 1 mg/kg) [mL/min/kg]	AUC(0-t) ([4]; IV, 1 mg/kg) [ng·h/mL]	half-life ([4]; IV, 1 mg/kg) [h]	MRT inf ([4]; IV, 1 mg/kg) [h]	Vd ([4]; IV, 1 mg/kg) [L/kg]	AUC(0-inf) ([4]; PO, 10 mg/kg) [ng·h/mL]	Cmax ([4]; PO, 10 mg/kg) [ng/mL]	Tmax ([4]; PO, 10 mg/kg) [h]	AUC(0-t) ([4]; PO, 10 mg/kg) [ng·h/mL]	half-life ([4]; PO, 10 mg/kg) [h]	bioavailability ([4]; PO, 10 mg/kg) [%]	other results
[2H]C([2H])(c1c[nH]c2cccc(OC)c12)[C@H]1CCCN1C([2H])([2H])[2H] [Compound I-39, (R)-4-methoxy-3-((1-(methyl-d3)pyrrolidin-2-yl)methyl-d2)-1H-indole]	< 1000	73.65	2.27	10.2	0.204	113	3.34	1960 ± 696	1290 ± 782	9.25	1960 ± 696	2.51 ± 0.366	2.78 ± 0.388	1.5 ± 0.397	214 ± 49.6	134 ± 14.7	0.5	210 ± 46.6	3.91 ± 1.81	1.09 ± 0.253	MRT inf ([4]; PO, 10 mg/kg): 2.3 ± 0.259 h; AUC0-inf/Dose ([4]; IV, 1 mg/kg): 1960 ± 696 kg·ng·h/mL/mg; AUC0-inf/Dose ([4]; PO, 10 mg/kg): 21.4 ± 4.96 kg·ng·h/mL/mg; Cmax/Dose ([4]; PO, 10 mg/kg): 13.4 ± 1.47 kg·ng/mL/mg
[2H]C([2H])(c1c[nH]c2cccc(O)c12)[C@H]1CCCN1C([2H])([2H])[2H] [Compound I-44, (R)-3-((1-(methyl-d3)pyrrolidin-2-yl)methyl-d2)-1H-indol-4-ol]	< 1000	78.13	2.81	8.23	0.608	38	32.00	598 ± 434	2570 ± 2560	42.5	595 ± 433	1.18 ± 0.205	0.754 ± 0.12	1.98 ± 1.58	537 ± 274	158 ± 55.4	0.75 ± 0.433	477 ± 260	2.71 ± 0.511	8.98 ± 4.58	MRT inf ([4]; PO, 10 mg/kg): 3.5 ± 0.965 h; AUC0-inf/Dose ([4]; IV, 1 mg/kg): 598 ± 434 kg·ng·h/mL/mg; AUC0-inf/Dose ([4]; PO, 10 mg/kg): 53.7 ± 27.4 kg·ng·h/mL/mg; Cmax/Dose ([4]; PO, 10 mg/kg): 15.8 ± 5.54 kg·ng/mL/mg
[2H]C([2H])([2H])N1CCC[C@@H]1Cc1c[nH]c2cccc(O)c12 [Compound I-2, (R)-3-((1-(methyl-d3)pyrrolidin-2-yl)methyl)-1H-indol-4-ol]	< 1000	82.10	3.51	6.57	0.627	36.8	33.13	463 ± 423	3590 ± 4100	64.5	461 ± 421	3.09 ± 2.79	0.733 ± 0.194	3.09 ± 3.22	314	117 ± 23.7	0.25	271 ± 30.9	9.31	6.27 ± 0.906	AUC(0-inf) ([4]; IV, 5 mg/kg): 1410 ± 862 ng·h/mL; C0 ([4]; IV, 5 mg/kg): 4780 ± 3570 ng/mL; clearance ([4]; IV, 5 mg/kg): 72.8 mL/min/kg; AUC(0-t) ([4]; IV, 5 mg/kg): 1370 ± 869 ng·h/mL; half-life ([4]; IV, 5 mg/kg): 12.7 ± 4.24 h; MRT inf ([4]; IV, 5 mg/kg): 3.1 ± 1.43 h; Vd ([4]; IV, 5 mg/kg): 15.3 ± 10.5 L/kg; MRT inf ([4]; PO, 10 mg/kg): 7.88 h; AUC0-inf/Dose ([4]; IV, 1 mg/kg): 463 ± 423 kg·ng·h/mL/mg; AUC0-inf/Dose ([4]; IV, 5 mg/kg): 282 ± 172 kg·ng·h/mL/mg; AUC0-inf/Dose ([4]; PO, 10 mg/kg): 31.4 (n = 2) h*kg*ng/mL/mg; Cmax/Dose ([4]; PO, 10 mg/kg): 11.7 ± 2.37 kg·ng/mL/mg
